# Data published in ChEMBL document CHEMBL3507680, “University of Dundee, Gates Library screen for HepG2 cell viability”.
# Test: Human HepG2 cell viability assay in 384 well format
# Format: toxicity, cell-based
# Design: dose 125 nL, time 70.5 hour; concentration not given beside the values
# Conditions: HepG2 cells, read-out: Inhibition
row,SMILES,cytotoxicity at 70.5 h [%]
1,Cc1ccc(C(=O)NCCCN2CCOCC2)c(Cl)c1,-6.07
2,c1ccc(CCCN2CC[C@H](c3nnc(-c4ccccc4)o3)C2)cc1,-2.93
3,COc1cccc(CN2CC[C@H](c3nnc(-c4ccco4)o3)C2)c1,10.6
4,CC(C)(C)c1c[nH]c([C@@H]2COCCN2C2CCOCC2)n1,12.2
5,COc1ccc(CN2CCOC[C@H]2c2nc(-c3ccncc3)c[nH]2)cc1,-1.1
6,CC(=O)N1CCN(C(=O)C[C@@H]2C[C@@H](C(C)C)[C@H](CC#N)C=C2C)CC1,0.119
7,COc1ccc(-c2cc(CC3(NCc4ccc(C)o4)COC3)no2)cc1,6.13
8,Cn1ccnc1CN1C(=O)CO[C@H]2CN(Cc3ccc(F)c(F)c3)C[C@H]21,8.11
9,O=C(c1cc(CC2(NCc3ccccc3)COC2)no1)N1CCCCC1,-5.63
10,CCCn1cnc2c1CN(S(=O)(=O)Cc1ccccc1)[C@H](C(=O)OC)C2,0.651
11,c1ccc(CCCN2CC[C@H](c3nnc(-c4cccnc4)o3)C2)cc1,-10.6
12,CS(=O)(=O)N1C[C@@H](F)[C@@H](OCc2nc3ccccc3o2)C1,14.3
13,F[C@@H]1CN(Cc2ccccc2)C[C@@H]1OCc1nc2ccccc2[nH]1,0.621
14,F[C@@H]1CN(CC2CC2)C[C@@H]1OCc1nc2ccc(C(F)(F)F)cc2[nH]1,0.533
15,O=C(C1CC1)N1C[C@@H](F)[C@@H](OCc2nc3cc(F)ccc3[nH]2)C1,-3.11
16,CC(=O)N1C[C@@H](F)[C@@H](OCc2nc3cc(C)c(C)cc3[nH]2)C1,-0.883
17,COC(=O)c1cccc2nc([C@H]3CCN(C4CCN(C)CC4)C3)oc12,-2.72
18,CC(=O)N1CCC(N2CC[C@H](c3nc4cc(C)ccc4o3)C2)CC1,-1.07
19,COC(=O)[C@@H]1Cc2ncn(C(C)C)c2CN1S(=O)(=O)Cc1ccccc1,-6.37
20,COCCOc1ccnc(-c2noc([C@@H]3CCCN3C)n2)c1,-3.64
21,COCc1cc(CC2(NC3CCN(C)CC3)COC2)no1,6.14
22,CC(C)CN1C[C@@H]2OCC(=O)N(Cc3nccn3C)[C@@H]2C1,14
23,Cc1ccc(-c2c[nH]c([C@@H]3COCCN3Cc3ncc[nH]3)n2)cc1,6.46
24,Cc1ccc(-c2c[nH]c([C@@H]3COCCN3Cc3cccnc3)n2)cc1,14.4
25,COCCN1C(=O)CO[C@H]2CN(S(=O)(=O)c3ccccc3)C[C@H]21,-12.7
26,COCC(=O)Nc1ccc(-c2noc([C@@H]3CCCN3)n2)cn1,-0.348
27,CC(C)(C)CN1CCC[C@H]1c1nc(-c2cncnc2N)no1,-0.753

row,SMILES,cytotoxicity at 70.5 h [%]
1,Cc1cccc(O[C@H]2COCCN(C3CCC3)C2)n1,-6.06
2,CC1(C)[C@H](Cc2cc(CO)on2)C[C@@H]1NCc1ccc(CO)o1,14.7
3,CC(=O)N1CCC(NC2(Cc3cc(CC(C)C)on3)COC2)CC1,3.96
4,Cc1cccc(O[C@H]2COCCN(C3CCOCC3)C2)n1,-9.61
5,O=C(NC[C@H]1OC[C@@H](NCc2ccccc2)[C@@H]1O)Nc1ccc(F)cc1,-4.13
6,O=C(NC[C@H]1O[C@H](Cc2cc(-c3ccccn3)on2)CC[C@@H]1O)C1CC1,-7.04
7,CC(C)NC(=O)N1CCN2C(=O)N(Cc3ccc(F)cc3)C[C@H]2C1,-4.66
8,O=C(NC[C@H]1OC[C@@H](NC2COC2)[C@@H]1O)c1ccccc1,-6.48
9,O=C(NC[C@H]1OC[C@@H](NCc2ccccn2)[C@@H]1O)c1ccncc1,-1.84
10,CC(C)NC(=O)NC[C@H]1OC[C@@H](NCc2ccncc2)[C@@H]1O,-3.41
11,COc1cc(C)c2c(c1C)C[C@H]([C@H](C)C(=O)O)CC2,-3.45
12,O=C1N[C@@H]2CCN(C(=O)C3CCC3)[C@@H]2C(=O)N1c1ccc(F)cc1,21.8
13,O=C(c1cc(CC2(NCC3CCCCC3)COC2)no1)N1CCCCC1,-6.68
14,CN(C)Cc1cc(CC2(NCc3ccccc3Cl)COC2)no1,-2.7
15,CN1CCOC[C@H]1c1nc(-c2ccccc2)c[nH]1,-9.46
16,O=C(NC[C@H]1OC[C@@H](NC(=O)c2ccccc2)[C@@H]1O)c1ccncc1,-0.603
17,COC(=O)[C@H]1CN(C(C)=O)CCN1C(C)=O,-2.71
18,CC(=O)N1CC[C@H]2CC(=O)N(CCc3c[nH]cn3)CC[C@H]2C1,-2.6
19,CCNC(=O)N1CC[C@H]2CC(=O)N(CC(N)=O)CC[C@H]2C1,-1.17
20,COCCOc1ncccc1-c1noc([C@@H]2CCCN2C2CCC2)n1,-10.3
21,COC(=O)c1cccc2nc([C@H]3CCN(Cc4ccccc4F)C3)oc12,-6.68
22,O=C([C@@H]1Cc2[nH]cnc2CN1Cc1cc2ccccc2o1)N1CCCC1,8.38
23,O[C@@H]1C[C@@H](c2nc(-c3ccccc3)no2)N(C2CCOCC2)C1,-3.47
24,O=C(NC[C@H]1C[C@@H]2CCN1C[C@@H]2CN1CCOCC1)Nc1ccccc1,-2.16
25,O=C(NC[C@H]1OC[C@@H](NC2COC2)[C@@H]1O)c1cccs1,-15.7
26,Cc1cccc(O[C@H]2COCCN(Cc3sc(C)nc3C)C2)n1,10.9
27,COCC(=O)N[C@H](C)c1onc(-c2ccc(F)cc2)c1C(=O)O,-6.83

row,SMILES,cytotoxicity at 70.5 h [%]
1,C[C@@H](NC(=O)c1cccn1C)c1c(-c2ccc(Cl)cc2)noc1C(=O)O,-7.66
2,c1ccc(CNC[C@H]2Cn3ccnc3CO2)cc1,4.33
3,CCC(=O)NCc1cc(C2CC2)n(C2CCCC2)n1,13.9
4,O=C(CN1C(=O)CCC1=O)N1CCC(S(=O)(=O)Cc2ccco2)CC1,-3.03
5,Cn1cnnc1S(=O)(=O)C1CCN(C(=O)c2cccs2)CC1,-10.5
6,Cn1cnnc1S(=O)(=O)C1CCN(C(=O)c2ccsc2)CC1,-9.56
7,Cc1ccc(S(=O)(=O)N2CCC(S(=O)(=O)c3nncn3C)CC2)cc1C,-6.93
8,CNC(=O)CS(=O)(=O)C1CCN(S(=O)(=O)c2cccc(Cl)c2C)CC1,-9.92
9,CC(=O)Nc1ccc(CC(=O)N2CC(S(=O)(=O)C3CCCCC3)C2)cc1,-3.63
10,COC1CCN(c2ccc(NC(=O)Cn3cccn3)cc2)CC1,-8
11,COC1CCN(c2ccc(NC(=O)Cn3cccc3)cc2)CC1,-11
12,O=C(Cc1ccccc1Cl)Nc1cnn(C2CCOC2)c1 (stereo not given),-14
13,O=C(Nc1cnn(C2CCOCC2)c1)c1ccc2c(c1)OCO2,-16
14,CC(C)CN1CCC(c2nc3c([nH]2)CC(C)(C)CNC3=O)C1 (stereo not given),-9.67
15,COc1ccc(C(=O)N2C[C@@H](CN3CCOCC3)[C@@H](CO)C2)c(C)c1,-7.76
16,Cc1ccc(CN2CCC(c3nnc(CN4CCCCC4)n3C)CC2)o1,-5.72
17,COc1ccccc1OCc1cc(C(=O)N2C[C@H](O)[C@@H](N(C)C)C2)n[nH]1,-4.57
18,O=C(NC(CO)CO)c1coc(COc2cccc(F)c2)n1,-13
19,COCCN1CCN(Cc2ccc(F)c(C)c2)[C@H]2CS(=O)(=O)C[C@H]21,17.8
20,O=C(Cc1cccc(Cl)c1)N[C@@H]1CCNC[C@H]1O,-3.16
21,Cc1ccccc1CSc1nc(N)cc(N2CCOC(C(N)=O)C2)n1 (stereo not given),1.56
22,COCCCn1ccnc1-c1cnc(OC)nc1,-9.97
23,COc1ccc(C(=O)C2CCCN(CCCn3cccn3)C2)c(OC)c1 (stereo not given),20.9
24,CCN1CC(C(=O)N2CCC(Oc3ccccc3C)CC2)CC1=O (stereo not given),-7.02
25,CCNC(=O)[C@@H]1C[C@H](NC(=O)c2ccccc2C#N)CN1CCCSC,-2.96
26,COCCC1(CO)CCCN(Cc2ccc(F)c(C)c2)C1 (stereo not given),-6.14
27,CCn1c(Cn2cncn2)nnc1C1CCN(C(=O)CCSC)CC1,-4.61

row,SMILES,cytotoxicity at 70.5 h [%]
1,Cc1cc(C)c2nc(CN3CC[C@@H](O)C3)cc(O)c2c1,-4.35
2,N#Cc1ccccc1CN1C[C@@H]2CC[C@H](C1)N(Cc1cscn1)C2=O,-11.1
3,Cc1cccnc1CN1CCC(c2nnc(Cn3cccn3)n2C)CC1,-7.96
4,CCn1c(CN(C)C)nnc1C1CCN(c2ccnc(C)c2)CC1,-3.44
5,COc1ccc(C(=O)N2C[C@@H](C(=O)O)[C@H](c3ccccc3C)C2)c(O)c1,-6.81
6,CSCCC1c2nc[nH]c2CCN1Cc1cc(Cl)ccc1O (stereo not given),-5.87
7,Cc1cc(N2CCCN(C(=O)Cc3csc(C)n3)CC2)ccn1,-12.4
8,COc1ccc2c(c1)OCC(CNC(=O)c1ccc(=O)n(C)c1)C2 (stereo not given),-10
9,CC(C)Cc1noc(CN(C)C(=O)C2COc3ccccc3C2)n1 (stereo not given),-14.4
10,COc1cccc2c1OCC(CNC(=O)CSc1nc(N)n[nH]1)C2 (stereo not given),-12
11,CCn1nc(CNC(=O)C2CC(=O)N(C3CCCC3)C2)c2ccccc21 (stereo not given),13.8
12,OCC1CCCCN1c1ccc(-c2nc(-c3ccccc3F)no2)cn1 (stereo not given),-24.7
13,Cc1cncc(C(=O)N2CCC(Cn3cc(-c4ccsc4)nn3)CC2)c1,-16.9
14,COCCN(C)C(=O)Cn1cccc(OC)c1=O,-9.38
15,Cn1cc(CN2CC[C@@H]3[C@@H](CCC(=O)N3CCC3=CCCCC3)C2)cn1,-4.77
16,COCc1cn([C@@H]2c3ccccc3C3(CCNCC3)[C@H]2O)nn1,-6.38
17,O=C(O)[C@@H]1CN(C(=O)c2ccc3[nH]nnc3c2)C[C@H]1c1cccc(F)c1,-8.9
18,CCn1nc(CC(C)C)cc1C(=O)NCCn1cccc1,-2.38
19,CC(C)Oc1cc(N2C[C@@H](C)O[C@@H](C)C2)nc(N)n1,-14.6
20,CN(Cc1nccs1)c1nc(-c2ccccn2)nc2c1CCNCC2,-4.75
21,CCn1cc(CN2CCCn3nc(CNC(=O)C4CCC4)cc3C2)cn1,-9
22,CCn1ccnc1CN1CCC(CCC(=O)Nc2ccccc2Cl)CC1,11.7
23,CCn1cc(CN2CCCn3nc(CCC(=O)NCCO)cc3C2)cn1,-3.88
24,CCS(=O)(=O)N1CCC(c2nnc(Cn3cccn3)n2C2CC2)CC1,-0.619
